“And” between values parts separate entries of the source, which are not always exact repeats. Equal values may be shown once.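 Protocol summary: plate cells (96-well), add compound at 5 concentrations, incubate 48 h, interpolate endpoints linearly. Abbreviation: GI50, concentration required for 50% inhibition of growth. TGI: concentration producing complete growth inhibition.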
What was measured:
Test in all cases: DTP human tumour cell line panel, 48 h
SR leukemia = tested on: SR leukemia
COLO 205 colon = tested on: COLO 205 colon
MCF7 breast = tested on: MCF7 breast
HCT-116 colon = tested on: HCT-116 colon
NCI-H460 lung = tested on: NCI-H460 lung
A498 renal = tested on: A498 renal
786-0 renal = tested on: 786-0 renal
T-47D breast = tested on: T-47D breast
K-562 leukemia = tested on: K-562 leukemia
SNB-75 CNS = tested on: SNB-75 CNS
SW-620 colon = tested on: SW-620 colon

| SMILES | TGI (SR leukemia) [µM] | TGI (COLO 205 colon) | TGI (MCF7 breast) | TGI (HCT-116 colon) [µM] | TGI (NCI-H460 lung) [µM] | TGI (A498 renal) | TGI (786-0 renal) | TGI (T-47D breast) | TGI (K-562 leukemia) | TGI (SNB-75 CNS) | TGI (SW-620 colon) | GI50 (SR leukemia) | GI50 (COLO 205 colon) | GI50 (MCF7 breast) | GI50 (HCT-116 colon) | GI50 (NCI-H460 lung) | GI50 (A498 renal) | GI50 (T-47D breast) | GI50 (SNB-75 CNS) |
| --- | --- | --- | --- | --- | --- | --- | --- | --- | --- | --- | --- | --- | --- | --- | --- | --- | --- | --- | --- |
| Cc1cc(SCC(=O)c2ccc(Br)cc2)cc(C)[o+]1 | > 100 | 83.7 µM | 38.2 µM | 65.7 | 76.2 | 81.6 µM | > 100 µM | 48.8 µM | 74.9 µM | 56.9 µM | > 100 µM | – | – | – | – | – | – | – | – |
| Brc1ccc(-c2ccc(-c3ccc(Br)s3)s2)s1 | > 100 | > 100 µM | > 100 µM | > 100 | > 100 | > 100 µM | > 100 µM | > 100 µM | > 100 µM | > 100 µM | > 100 µM | – | – | – | – | – | – | – | – |
| CCCCN(CCCC)CC(=O)c1ccc2cc(Cl)c3ccccc3c2c1 | > 100 | 34.1 µM | 92.3 µM | > 100 | 52.1 | 46.9 µM | > 100 µM | 76.6 µM | > 100 µM | 67.3 µM | > 100 µM | – | – | – | – | – | – | – | – |
| Cn1c2ccccc2n2c(=O)c(-c3ccc(O)cc3)nnc12 | > 100 | > 100 µM | > 100 µM | > 100 | > 100 | > 100 µM | > 100 µM | > 100 µM | – | 75 µM | > 100 µM | – | – | – | – | – | – | – | – |
| COc1ccc2c(c1)CCC(CN1CCN(CCOC(c3ccc(F)cc3)c3ccc(F)cc3)CC1)=C2 | 27.7 | 10.4 µM | 71.9 µM | 21.2 | 34.2 | 48.1 µM | 27.2 µM | > 100 µM | > 100 µM | > 100 µM | > 100 µM | – | – | – | – | – | – | – | – |
| N#Cc1ccc(Nc2nc3nc[nH]c3c(=O)[nH]2)cc1 | > 100 | > 100 µM | > 100 µM | > 100 | > 100 | > 100 µM | > 100 µM | > 100 µM | – | > 100 µM | > 100 µM | – | – | – | – | – | – | – | – |
| Cc1ccc(Nc2ncnc3sc(SCc4ccccc4)nc23)cc1 | > 100 | > 100 µM | > 100 µM | > 100 | > 100 | > 100 µM | > 100 µM | > 100 µM | > 100 µM | > 100 µM | > 100 µM | – | – | – | – | – | – | – | – |
| Cc1[nH]n(C(=O)c2ccccc2O)c(=O)c1/C=C1\C(=O)C=Cc2ccccc21 | > 100 | 13.1 µM | 15.1 µM | > 45.5 | 9.94 | 11.2 µM | 10.1 µM | > 100 µM | > 44 µM | 10.4 µM | > 100 µM | – | – | – | – | – | – | – | – |
| CC(=O)OCC1OC(n2c(-c3ccccc3)c(N=Nc3ccc(Cl)cc3)c(C)c(C#N)c2=S)C(OC(C)=O)C(OC(C)=O)C1OC(C)=O (stereo not drawn) | > 100 | 57.5 µM and > 100 µM | 24.4 µM and > 100 µM | > 100 | > 100 | 43.5 µM and 70.7 µM | > 100 µM and 88.6 µM | 47.3 µM and > 100 µM | 28.6 µM and > 100 µM | > 100 µM and 26.4 µM | 34.6 µM and > 100 µM | 11.5 µM and 34.9 µM | 28 µM and > 100 µM | 10.2 µM and 28.2 µM | 6.61 µM and 30.2 µM | 5.26 µM and 51.2 µM | 2.78 µM and 19.1 µM | 6.86 µM and 27.2 µM | 25.5 µM and 4.24 µM |
| COc1cc(/C=C\c2ccc(SC)cc2)cc(OC)c1OC | 15.1 | 0.108 µM | > 100 µM | > 26.3 | > 49.3 | > 54.1 µM | 18.5 µM | > 100 µM | > 46.8 µM | > 100 µM | > 100 µM | – | – | – | – | – | – | – | – |
| COC(=O)c1nc2c(C)c(O)c(O)c([C@H](C)CCC=C(C)C)c2o1 | 78.5 | 35.6 µM | > 100 µM | 41.5 | > 100 | 39 µM | 39.5 µM | > 100 µM | > 100 µM | 56.1 µM | > 100 µM | – | – | – | – | – | – | – | – |
| C=C(C)C1CC2=C(C(=O)OC)C=C(O2)C(C(=C)C)[C@@H]2OC(=O)/C(=C\C1O)[C@H]2N(C)C (stereo partly drawn) | > 41.2 | 29 µM | 24.9 µM | 27.7 | 31.4 | 31.3 µM | 21 µM | 45.9 µM | > 100 µM | 30.4 µM | 30.3 µM | – | – | – | – | – | – | – | – |
| C(=N\NC1=NCCCN1)/c1ccc(-c2cn3cc(/C=N/NC4=NCCCN4)ccc3n2)cc1 | > 29 | > 100 µM | > 100 µM | > 100 | > 100 | > 78.5 µM | > 100 µM | > 100 µM | > 84.3 µM | > 100 µM | > 100 µM | – | – | – | – | – | – | – | – |
| Cc1nc2c(=O)[nH]c(=O)nc-2n(CCO)c1C | > 100 | > 100 µM | > 100 µM | > 100 | > 100 | > 100 µM | > 100 µM | > 100 µM | > 100 µM | > 100 µM | > 100 µM | – | – | – | – | – | – | – | – |
| CC(C)C[C@H](NC(=O)[C@@H](Cc1cccc2ccccc12)NC(=O)N1CCOCC1)B(O)O | 19.4 | 36.4 µM | > 52.7 µM | 5.94 | 40.6 | 18.1 µM | 19.7 µM | 5.43 µM | 46.6 µM | 18.8 µM | 12.2 µM | – | – | – | – | – | – | – | – |
| COc1ccccc1NC(=S)N/N=C(/c1ccccc1)c1ccccn1 | 1.34 | 0.59 µM | 3.62 µM | 14.7 | 13.3 | 12.5 µM | 18.7 µM | 27.2 µM | – | 24.7 µM | 18.4 µM | – | – | – | – | – | – | – | – |
| CC(C)(C)[Si](C)(C)OCC1OC(n2ccc(=O)[nH]c2=O)C(O[Si](C)(C)C(C)(C)C)/C1=N/O (stereo not drawn) | 7.28 | 5.69 µM | 27.7 µM | 7.11 | 12.5 | 16.5 µM | 8.23 µM | 24.2 µM | 15.7 µM | 46.1 µM | > 37.8 µM | – | – | – | – | – | – | – | – |
| C[N+](C)(C)CCCCCc1c2nc(c(CCCCC[N+](C)(C)C)c3ccc([nH]3)c(CCCCC[N+](C)(C)C)c3ccc([nH]3)c(CCCCC[N+](C)(C)C)c3nc1C=C3)C=C2 | > 100 | > 100 µM | > 100 µM | > 100 | > 100 | > 100 µM | > 100 µM | > 100 µM | > 100 µM | > 100 µM | > 100 µM | – | – | – | – | – | – | – | – |
